Source: patent publication US10392404B2, “Compounds and compositions as kinase inhibitors” (NOVARTIS AG, priority 2014, dated 2019)

Experiments:
b-Raf (V600E) = target: T1, b-Raf (V600E) (Homo sapiens, UniProt P15056, V600E); test: In vitro Raf activity determination (Alpha Screen, biotinylated kinase-dead MEK1 substrate), B-Raf; assay type: biochemical; settings: b-Raf (V600E) approximately 4 pM; ATP 10 μM; pre-incubation 60 minutes; reaction 3 hours at room temperature
T1 construct: made in house
Summary of the method: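 IC50 from non-linear regression of AlphaScreen phospho-MEK signal (anti-p-MEK1/2 antibody). b-Raf(V600E), about 4 pM, phosphorylated ~10 nM biotinylated K97R MEK1 with 10 μM ATP for 3 h at room temperature after 60 min compound pre-incubation; buffer pH 7.5 Tris, 15 mM MgCl2, 1 mM DTT.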

C-RAF = target: T2, C-RAF (Homo sapiens, UniProt P04049, Y340E/Y341E); test: In vitro Raf activity determination (Alpha Screen, biotinylated kinase-dead MEK1 substrate), C-Raf; assay type: biochemical; settings: c-Raf approximately 4 nM; ATP 1 μM; pre-incubation 60 minutes; reaction 1 hour at room temperature
T2 construct: His tag (implied by nickel chromatography) (cleaved yes); StrepII tag (cleaved yes); made in house; host or cells: Sf9 insect cells (baculovirus), CRAF and h14-3-3 zeta co-expressed; MEK1 substrate from E. coli
Summary of the method: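 AlphaScreen read-out of MEK phosphorylation using an anti-phospho-MEK1/2 antibody after a 1 hour room-temperature reaction at 1 μM ATP. Enzyme: approximately 4 nM Sf9-expressed full-length activated C-Raf (Y340E/Y341E, with 14-3-3ζ) on approximately 10 nM biotinylated K97R MEK1, after 60 min compound preincubation. IC50 by non-linear fit.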

T2 sequence (P04049 whole entry Y340E/Y341E): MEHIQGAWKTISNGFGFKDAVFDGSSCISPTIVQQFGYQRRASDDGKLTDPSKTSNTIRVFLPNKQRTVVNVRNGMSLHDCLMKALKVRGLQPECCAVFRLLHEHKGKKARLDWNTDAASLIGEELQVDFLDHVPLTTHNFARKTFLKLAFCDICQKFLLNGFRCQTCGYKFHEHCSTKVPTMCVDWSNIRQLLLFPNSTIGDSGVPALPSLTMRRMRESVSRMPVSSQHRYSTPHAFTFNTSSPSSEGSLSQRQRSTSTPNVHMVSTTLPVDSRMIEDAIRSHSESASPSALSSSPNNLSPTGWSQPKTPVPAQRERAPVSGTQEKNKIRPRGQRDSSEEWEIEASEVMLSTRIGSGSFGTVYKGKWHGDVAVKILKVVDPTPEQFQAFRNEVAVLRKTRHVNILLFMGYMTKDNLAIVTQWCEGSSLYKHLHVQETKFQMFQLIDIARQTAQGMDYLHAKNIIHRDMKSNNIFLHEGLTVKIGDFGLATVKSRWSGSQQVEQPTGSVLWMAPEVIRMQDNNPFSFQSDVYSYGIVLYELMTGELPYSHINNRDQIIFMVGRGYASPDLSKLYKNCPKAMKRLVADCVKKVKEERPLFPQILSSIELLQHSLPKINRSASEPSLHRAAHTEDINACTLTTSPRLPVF
T2 sequence (P63104 whole entry partner): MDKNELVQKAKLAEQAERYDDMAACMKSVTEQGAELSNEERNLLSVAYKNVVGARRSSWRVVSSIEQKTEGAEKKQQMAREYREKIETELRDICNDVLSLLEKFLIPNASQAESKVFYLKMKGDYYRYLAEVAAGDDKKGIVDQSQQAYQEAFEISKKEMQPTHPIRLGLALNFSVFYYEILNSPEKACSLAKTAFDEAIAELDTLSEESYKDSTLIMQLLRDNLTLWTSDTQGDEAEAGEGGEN
T1 sequence (P15056 whole entry V600E): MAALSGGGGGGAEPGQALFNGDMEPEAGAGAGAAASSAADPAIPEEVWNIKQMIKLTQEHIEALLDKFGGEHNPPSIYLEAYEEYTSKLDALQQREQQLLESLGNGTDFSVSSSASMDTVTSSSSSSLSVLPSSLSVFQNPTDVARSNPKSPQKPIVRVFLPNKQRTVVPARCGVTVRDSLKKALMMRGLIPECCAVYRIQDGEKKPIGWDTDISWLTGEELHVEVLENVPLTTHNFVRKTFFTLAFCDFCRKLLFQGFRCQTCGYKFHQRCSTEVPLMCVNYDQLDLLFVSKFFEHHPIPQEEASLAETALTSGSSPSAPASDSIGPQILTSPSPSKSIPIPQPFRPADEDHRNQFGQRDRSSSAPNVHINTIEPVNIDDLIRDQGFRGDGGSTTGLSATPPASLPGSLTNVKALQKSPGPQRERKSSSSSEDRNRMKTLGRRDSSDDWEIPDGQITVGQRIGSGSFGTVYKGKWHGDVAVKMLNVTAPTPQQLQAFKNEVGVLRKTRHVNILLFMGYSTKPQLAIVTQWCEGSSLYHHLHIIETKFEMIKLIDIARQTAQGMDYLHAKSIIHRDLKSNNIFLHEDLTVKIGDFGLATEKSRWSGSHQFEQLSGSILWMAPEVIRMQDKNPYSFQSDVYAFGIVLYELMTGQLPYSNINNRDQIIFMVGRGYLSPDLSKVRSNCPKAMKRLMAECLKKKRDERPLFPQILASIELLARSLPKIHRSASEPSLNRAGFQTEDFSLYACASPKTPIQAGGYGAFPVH

Compound | IC50 (b-Raf (V600E)) | IC50 (C-RAF)
Cc1ncc(NC(=O)c2ccnc(C(C)C)c2)cc1-c1cnc(N2CCOCC2)c(C#N)c1 [Example 133, N-(5′-cyano-2-methyl-6′-morpholino-[3,3′-bipyridin]-5-yl)-2-isopropyl-isonicotinamide] | 2.05 nM | 0.33 nM
Cc1ncc(NC(=O)c2ccnc(C3CC3)c2)cc1-c1cnc(N2CCOCC2)c(C#N)c1 [Example 134, N-(5′-cyano-2-methyl-6′-morpholino-[3,3′-bipyridin]-5-yl)-2-cyclopropyl-isonicotinamide] | 1.46 nM | 0.236 nM
Cc1ncc(NC(=O)c2ccnc(C(F)F)c2)cc1-c1cnc(N2CCOCC2)c(C#N)c1 [Example 136, N-(5′-cyano-2-methyl-6′-morpholino-[3,3′-bipyridin]-5-yl)-2-(difluoromethyl) isonicotinamide] | 1.16 nM | 0.153 nM
Cc1ccc(NC(=O)c2ccnc(C(C)(C)C#N)c2)cc1-c1cnc(C2CCOCC2)c(C#N)c1 [Example 137, N-(3-(5-cyano-6-(tetrahydro-2H-pyran-4-yl)pyridin-3-yl)-4-methylphenyl)-2-(2-cyanopropan-2-yl)isonicotinamide] | 1.98 nM | 0.476 nM
Cc1ccc(NC(=O)c2ccnc(S(C)(=O)=O)c2)cc1-c1cnc(C2CCOCC2)c(C#N)c1 [Example 138, N-(3-(5-cyano-6-(tetrahydro-2H-pyran-4-yl)pyridin-3-yl)-4-methylphenyl)-2-(methylsulfonyl) isonicotinamide] | 4.14 nM | 0.511 nM
Cc1ccc(NC(=O)c2cccc(S(C)(=O)=O)c2)cc1-c1cnc(C2CCOCC2)c(C#N)c1 [Example 139, N-(3-(5-cyano-6-(tetrahydro-2H-pyran-4-yl)pyridin-3-yl)-4-methylphenyl)-3-(methylsulfonyl) benzamide] | 2.4 nM | 0.377 nM
Cc1ncc(NC(=O)c2cnnc(C(F)(F)F)c2)cc1-c1cnc(N2CCOCC2)c(C#N)c1 [Example 142, N-(5′-cyano-2-methyl-6′-morpholino-[3,3′-bipyridin]-5-yl)-6-(trifluoromethyl) pyridazine-4-carboxamide] | 2.79 nM | 0.344 nM
Cc1ccc(NC(=O)c2cnnc(C(F)(F)F)c2)cc1-c1cnc(N2CCNCC2)c(C#N)c1 [Example 143, N-(3-(5-cyano-6-(piperazin-1-yl)pyridin-3-yl)-4-methylphenyl)-6-(trifluoromethyl) pyridazine-4-carboxamide] | 5.63 nM | 0.842 nM
Cc1ncc(NC(=O)c2cnnc(C(F)(F)F)c2)cc1-c1cnc(C2CCOCC2)c(C#N)c1 [Example 144, N-(5′-cyano-2-methyl-6′-(tetrahydro-2H-pyran-4-yl)-[3,3′-bipyridin]-5-yl)-6-(trifluoromethyl) pyridazine-4-carboxamide] | 76 nM | 12.6 nM
Cc1ccc(NC(=O)c2ccnc(C3(C#N)CC3)c2)cc1-c1cnc(N2CCOCC2)c(C#N)c1 [Example 147, N-(3-(5-cyano-6-morpholinopyridin-3-yl)-4-methylphenyl)-2-(1-cyanocyclopropyl) isonicotinamide] | 0.503 nM | 0.116 nM
Cc1ncc(NC(=O)c2ccnc(C3(C#N)CC3)c2)cc1-c1cnc(C2CCOCC2)c(C#N)c1 [Example 148, N-(5'-cyano-2-methyl-6'-(tetrahydro-2H-pyran-4-yl)-[3,3'-bipyridin]-5-yl)-2-(1-cyanocyclopropyl) isonicotinamide] | 3.34 nM | 0.731 nM
Cc1ccc(NC(=O)c2ccccc2)cc1-c1cncc(C#N)c1 [Example 149, N-(3-(5-cyanopyridin-3-yl)-4-methylphenyl) benzamide] | 15100 nM | 2370 nM
Cc1ccc(NC(=O)c2ccnc(C(C)(C)C#N)c2)cc1-c1cnc(N2CCNCC2)c(C#N)c1 [Example 151, N-(3-(5-cyano-6-(piperazin-1-yl)pyridin-3-yl)-4-methylphenyl)-2-(2-cyanopropan-2-yl)isonicotinamide] | 1.41 nM | 0.353 nM
Cc1ccc(NC(=O)c2ccnc(S(C)(=O)=O)c2)cc1-c1cnc(N2CCNCC2)c(C#N)c1 [Example 152, N-(3-(5-cyano-6-(piperazin-1-yl)pyridin-3-yl)-4-methylphenyl)-2-(methylsulfonyl) isonicotinamide] | 5.68 nM | 0.702 nM
Cc1ccc(NC(=O)c2ccnc(C(F)(F)F)c2)cc1-c1cnc(N2CCNCC2)c(C#N)c1 [Example 153, N-(3-(5-cyano-6-(piperazin-1-yl)pyridin-3-yl)-4-methylphenyl)-2-(trifluoromethyl) isonicotinamide] | 0.7 nM | 0.15 nM
Cc1ccc(NC(=O)c2ccnc(C3CC3)c2)cc1-c1cnc(N2CCOCC2)c(C#N)c1 [Example 155, N-(3-(5-cyano-6-morpholinopyridin-3-yl)-4-methylphenyl)-2-cyclopropyl-isonicotinamide] | 0.263 nM | 0.0395 nM
Cc1ccc(NC(=O)c2cccc(S(C)(=O)=O)c2)cc1-c1cnc(N2CCNCC2)c(C#N)c1 [Example 159, N-(3-(5-cyano-6-(piperazin-1-yl)pyridin-3-yl)-4-methylphenyl)-3-(methylsulfonyl) benzamide] | 1.49 nM | 0.197 nM
Cc1ccc(NC(=O)c2ccnc(C(F)F)c2)cc1-c1cnc(N2CCNCC2)c(C#N)c1 [Example 160, N-(3-(5-cyano-6-(piperazin-1-yl)pyridin-3-yl)-4-methylphenyl)-2-(difluoromethyl) isonicotinamide] | 1.59 nM | 0.157 nM
Cc1ccc(NC(=O)c2ccnc(C(C)(F)F)c2)cc1-c1cnc(N2CCNCC2)c(C#N)c1 [Example 161, N-(3-(5-cyano-6-(piperazin-1-yl)pyridin-3-yl)-4-methylphenyl)-2-(1,1-difluoroethyl) isonicotinamide] | 0.577 nM | 0.153 nM

More lines, now with the values ahead:

IC50 (b-Raf (V600E)) | IC50 (C-RAF) | Compound
4.79 nM | 0.969 nM | CCn1cc(C(=O)Nc2cnc(C)c(-c3cnc(N4CCOCC4)c(C#N)c3)c2)cc(C(F)(F)F)c1=O [Example 135, N-(5′-cyano-2-methyl-6′-morpholino-[3,3′-bipyridin]-5-yl)-1-ethyl-6-oxo-5-(trifluoromethyl)-1,6-dihydropyridine-3-carboxamide]
3.61 nM | 0.792 nM | Cc1ccc(NC(=O)c2ccnc(C(C)(C)O)c2)cc1-c1cnc(C2CCOCC2)c(C#N)c1 [Example 140, N-(3-(5-cyano-6-(tetrahydro-2H-pyran-4-yl)pyridin-3-yl)-4-methylphenyl)-2-(2-hydroxypropan-2-yl)isonicotinamide]
56.2 nM | 5.13 nM | Cc1ncc(NC(=O)c2cccc(C(F)(F)F)n2)cc1-c1cnc(C2CCOCC2)c(C#N)c1 [Example 141, N-(5′-cyano-2-methyl-6′-(tetrahydro-2H-pyran-4-yl)-[3,3′-bipyridin]-5-yl)-6-(trifluoromethyl) picolinamide]
0.56 nM | 0.148 nM | Cc1ccc(NC(=O)c2ccnc(C3(C#N)CC3)c2)cc1-c1cnc(N2CCNCC2)c(C#N)c1 [Example 145, N-(3-(5-cyano-6-(piperazin-1-yl)pyridin-3-yl)-4-methylphenyl)-2-(1-cyanocyclopropyl) isonicotinamide]
1.33 nM | 0.262 nM | Cc1ncc(NC(=O)c2ccnc(C3(C#N)CC3)c2)cc1-c1cnc(N2CCOCC2)c(C#N)c1 [Example 146, N-(5′-cyano-2-methyl-6′-morpholino-[3,3′-bipyridin]-5-yl)-2-(1-cyanocyclopropyl) isonicotinamide]
0.591 nM | 0.158 nM | Cc1ccc(NC(=O)c2ccnc(C(C)C)c2)cc1-c1cnc(N2CCNCC2)c(C#N)c1 [Example 150, N-(3-(5-cyano-6-(piperazin-1-yl)pyridin-3-yl)-4-methylphenyl)-2-isopropyl-isonicotinamide]
0.342 nM | 0.0675 nM | Cc1ccc(NC(=O)c2ccnc(C(F)F)c2)cc1-c1cnc(N2CCOCC2)c(C#N)c1 [Example 154, N-(3-(5-cyano-6-morpholinopyridin-3-yl)-4-methylphenyl)-2-(difluoromethyl) isonicotinamide]
0.35 nM | 0.0597 nM | Cc1ccc(NC(=O)c2ccnc(S(C)(=O)=O)c2)cc1-c1cnc(N2CCOCC2)c(C#N)c1 [Example 156, N-(3-(5-cyano-6-morpholinopyridin-3-yl)-4-methylphenyl)-2-(methylsulfonyl) isonicotinamide]
0.304 nM | 0.0559 nM | Cc1ccc(NC(=O)c2cccc(S(C)(=O)=O)c2)cc1-c1cnc(N2CCOCC2)c(C#N)c1 [Example 157, N-(3-(5-cyano-6-morpholinopyridin-3-yl)-4-methylphenyl)-(methylsulfonyl) benzamide]
1.09 nM | 0.199 nM | Cc1ccc(NC(=O)c2ccnc(C3CC3)c2)cc1-c1cnc(N2CCNCC2)c(C#N)c1 [Example 158, N-(3-(5-cyano-6-(piperazin-1-yl)pyridin-3-yl)-4-methylphenyl)-2-cyclopropyl isonicotinamide]
2.48 nM | 0.522 nM | CCn1cc(C(=O)Nc2ccc(C)c(-c3cnc(N4CCNCC4)c(C#N)c3)c2)cc(C(F)(F)F)c1=O [Example 162, N-(3-(5-cyano-6-(piperazin-1-yl)pyridin-3-yl)-4-methylphenyl)-1-ethyl-6-oxo-5-(trifluoromethyl)-1,6-dihydropyridine-3-carboxamide]
